Laboratory results: patent publication US6794397B2, “Substituted nicotinamides and analogs as activators of caspases and inducers of apoptosis and the use thereof” (Cytovia, Inc., priority 2000, dated 2004)
pIC50: −log10 of the molar value. Entries after “also recorded” stand apart in the source; their conditions may differ.

Columns and labels:
ZR75-1 = test: Caspase cascade activation assay (N-(Ac-DEVD)-N'-ethoxycarbonyl-R110 fluorogenic substrate) in ZR75-1 cells; assay type: cell-based, Human; conditions: for EC50: Homo sapiens, ZR-75-1, 24 h incubation, read-out: EC50 (nM) caspase potency; for Caspase activity Ratio: ratio of net RFU of test compound to control, 0.16 to 10 μM final
Procedure: (§1) Human breast cancer cell lines T47D and ZR75-1 were grown according to media component mixtures designated by American Type Culture Collection +10% FCS (Invitrogen Corporation, Life Technologies Division), in a 5% CO2 −95% humidity incubator at 37° C. T47D and ZR75-1 cells were maintained at a cell density between 30 and 80% confluency at a cell density of 0.1 to 0.6×10^6 cells/ml. Cells were harvested at 600xg and resuspended at 0.65×10^6 cells/ml into appropriate media +10% FCS. An aliquot of 45 μl of cells was added to a well of a 96-well microtiter plate containing 5 μl of a 10% DMSO in RPMI-1640 media solution containing 1.6 to 100 μM of N-(4-methoxy-2-nitrophenyl)-3-pyridinecarboxamide or other test compound (0.16 to 10 μM final). An aliquot of 45 μl of cells was added to a well of a 96-well microtiter plate containing 5 μl of a 10% DMSO in RPMI-1640 media solution without test compound as the control sample. The samples were mixed by agitation and then incubated at 37 C. for 24 h in a 5% CO2 −95% humidity incubator. After incubation, the samples were removed from the incubator and 50 μl of a solution containing 20 μM of N-(Ac-DEVD)-N′-ethoxycarbonyl-R110 (SEQ ID NO: 1) fluorogenic substrate (Cytovia, Inc.; WO99/18856), 20% sucrose (Sigma), 20 mM DTT (Sigma), 200 mM NaCl (Sigma), 40 mM Na PIPES buffer pH 7.2 (Sigma), and 500 μg/ml lysolecithin (Calbiochem) was added. The samples were mixed by agitation and incubated at room temperature. Using a fluorescent plate reader (Model 1420 Wallac Instruments), an initial reading (T=0) was made approximately 1-2 min after addition of the substrate solution, employing excitation at 485 nm and emission at 530 nm, to determine the background fluorescence of the control sample. After the 3 h incubation, the samples were read for fluorescence as above (T=3 h).
(§2) The Relative Fluorescence Unit values (RFU) were used to calculate the sample readings as follows:
(§3) RFU(T=3h)−Control RFU(T=0)=Net RFU(T=3h).
(§4) The activity of caspase cascade activation was determined by the ratio of the net RFU value for N-(4-methoxy-2-nitrophenyl)-3-pyridinecarboxamide or other test compound to that of control samples. The EC50 (nM) was determined by a sigmoidal dose-response calculation (Prism 2.0, GraphPad Software Inc.).

T47D [1] = test: Caspase cascade activation assay (N-(Ac-DEVD)-N'-ethoxycarbonyl-R110 fluorogenic substrate) in T47D cells; assay type: cell-based, Human; conditions: 24 h incubation; for EC50: Homo sapiens, read-out: EC50 (nM) caspase potency; for EC50 / EC50 (nM) caspase potency: sigmoidal dose-response; for Caspase activity Ratio: ratio of net RFU of test compound to control, 0.16 to 10 μM final
Procedure: as §1, §2, §3, §4

T47D [2] = test: Cell cycle arrest and apoptosis in T47D cells (propidium iodide flow cytometry); assay type: cell-based, Human; conditions: 48 h
Procedure: T47D, a breast cancer cell line, was maintained and harvested as described in Example 71. […] As a control, cells were also incubated with equivalent amount of solvent as control (DMSO). Cells were harvested at 1,200 rpm and washed twice with 5 mM EDTA/PBS. Cells were then resuspended in 300 μl EDTA/PBS and 700 μl of 100% ethanol, vortexed and incubated at room temperature for 1 h. Samples were spun down at 1,200 rpm for 5 min and the supernatant was removed. A solution containing 100 μg/ml of propidium iodide and 1 mg/ml of RNAse A (fresh) was added to the samples and incubated for 1 h at room temperature. Samples were then transferred to 12×75 mm polystyrene tubes and analyzed on a flow cytometer. All flow cytometry analyses were performed on FACScalibur (Becton Dickinson) using Cell Quest analysis software. On the x-axis is plotted the fluorescence intensity and on the y-axis is plotted the number of cells with that fluorescence intensity. […] An increase in the sub-diploid DNA content of cells (marker M1 region, FIG. 3) is also seen to increase from 2% to 25% with compound treatment. The sub-diploid amount of DNA (M1) is indicative of apoptotic cells which have undergone DNA degradation or fragmentation.

HeLa cells = test: Inhibition of proliferation / colony formation of HeLa cells; assay type: cell-based; conditions: Homo sapiens, 48 hr treatment, colonies counted after 5-7 days
Procedure: HeLa cells were grown according to media component mixtures designated by American Type Culture Collection +10% FCS (Invitrogen Corporation, Life Technologies Division), in a 5% CO2 −95% humidity incubator at 37° C. In a well of a 96 well plate, 30,000 cells were seeded and treated with compound at the indicated concentrations for 48 hr in a 5% CO2−95% humidity incubator at 37° C. Control wells were treated with the same amount of solvent (DMSO) as the compound samples. After the indicated treatment time, the supernatant was removed to a sterile culture tube and the wells washed with phosphate buffered saline, and the adherent cells trypsinized for 5 min. The trypsinzed cells were added to the culture supernatant, cells were collected (1,200 rpm, 10 min), washed with phosphate buffered saline, and resuspended in fresh media. The cells were counted for trypan blue negative cells, and the cells were diluted with fresh media to 1,000 cells/ml. To a well of a 24-well plate, 0.1 ml of the cell suspension was added along with 1 ml of fresh media (cell suspensions were passed through a 22G needle several times just before plating to form single cell suspensions). […] Colonies are counted when the sizes reached greater than 50 cells per colony. […] Colonies are rinsed with water and the colonies counted and the fraction surviving expressed as the percentage of the number of control colonies.

Jurkat cells [3] = test: Nuclear fragmentation in Jurkat cells (Syto16 staining); assay type: cell-based; conditions: 5 μM, 24 h, Syto16 stain
Procedure: The ability of N-(4-methoxy-2-nitrophenyl)-3-pyridinecarboxamide to induce nuclear fragmentation was tested by treatment of Jurkat cells with the test compound followed by staining of the nucleus with Sytol6, a fluorescent DNA dye (Molecular Probes, Eugene, Oreg.). The nuclei of Jurkat cells treated with vehicle control (DMSO) are seen to be round with dispersed chromatin that is moderately stained with Sytol6 (FIG. 1A).

Jurkat cells [4] = test: Mitotic arrest in Jurkat cells (mitotic figures counted); assay type: cell-based; conditions: 0.02 μM to 5 μM, 6 h
Procedure: Jurkat cells were incubated with a range of concentrations of N-(4-methoxy-2-nitrophenyl)-3-pyridinecarboxamide (0.02 μM to 5 μM) for 6 h under normal growth conditions; control cultures were treated with DMSO vehicle. The cells were then treated for 20 min. with 800 nM Syto 16 (Molecular Probes, Eugene, OR). Cytospin preparations were then prepared and the samples were viewed by fluorescent microscopy using a fluorescein filter set. For each concentration of test compound, the number of mitotic figures were counted and expressed as a percentage of the total number of cells. Three fields from each condition were evaluated and the mean and SEM were calculated and plotted as a function of drug concentration (FIG. 2).

SMILES | EC50 (ZR75-1; sigmoidal dose-response) [nM] | EC50 (T47D [1]) [nM] | Caspase activity Ratio (ZR75-1; 24 h incubation) | Caspase activity Ratio (T47D [1]) | also measured
CCOc1ccc(NC(=O)c2ccc(Cl)nc2)c([N+](=O)[O-])c1 [Example 8, 6-Chloro-N-(4-ethoxy-2-nitrophenyl)-3-pyridinecarboxamide] | 77 | 153 | 6.3 | 5.0 | G1 (M2) cells (T47D [2]; 1 μM): a reduction in the G1(M2); G2/M phase (M4) cells (T47D [2]; 1 μM): accumulation of T47D cells in the G2/M phase; also recorded: an increase in the G2/M (M4); sub-G1 / sub-diploid DNA content of cells (M1) (T47D [2]; 1 μM): increase substantially over control cells; pIC50 (HeLa cells): ~7.00
Cc1ccc(NC(=O)c2ccc(Cl)nc2)c([N+](=O)[O-])c1 [Example 9, 6-Chloro-N-(4-methyl-2-nitrophenyl)-3-pyridinecarboxamide] | 488 | 920 | 5.0 | 5.4 | 
N#Cc1ccc(NC(=O)c2ccc(Cl)nc2)c([N+](=O)[O-])c1 [Example 21, 6-Chloro-N-(4-cyano-2-nitrophenyl)-3-pyridinecarboxamide] | 4670 |  | 2.3 | Inactive | EC50 (nM) caspase potency (T47D [1]): Inactive
Cc1cc(NC(=O)c2ccc(Cl)nc2)c([N+](=O)[O-])cc1C [Example 27, 6-Chloro-N-(4,5-dimethyl-2-nitrophenyl)-3-pyridinecarboxamide] |  |  | Inactive | Inactive | EC50 (nM) caspase potency (ZR75-1; 24 h incubation, sigmoidal dose-response): Inactive; EC50 (nM) caspase potency (T47D [1]): Inactive
O=C(Nc1ccc(Cl)cc1[N+](=O)[O-])c1ccc(Cl)nc1 [Example 2, 6-Chloro-N-(4-chloro-2-nitrophenyl)-3-pyridinecarboxamide] | 329 | 587 | 5.8 | 7.8 | 

Second part, led by results:

EC50 (ZR75-1; sigmoidal dose-response) [nM] | EC50 (T47D [1]) [nM] | SMILES | Caspase activity Ratio (ZR75-1; 24 h incubation) | Caspase activity Ratio (T47D [1]) | also measured
1000 | 1800 | COc1ccc(NC(=O)c2cccnc2)c([N+](=O)[O-])c1 [Example 29, N-(4-Methoxy-2-nitrophenyl)-3-pyridinecarboxamide] | 6.4 | 5.8 | Nuclear fragmentation (nuclear morphology) (Jurkat cells [3]): shrunken and fragmented nuclei; Mitotic arrest (Jurkat cells [4]): effective inducer of mitotic arrest; also recorded: increasing percent of mitotic arrest with increasing drug concentration; G1 (M2) cells (T47D [2]; 10 μM): a reduction in the G1(M2); G2/M DNA content (M4) cells (T47D [2]; 10 μM): increase in G2/M DNA content; also recorded: an increase in the G2/M (M4); sub-diploid DNA content of cells (M1), in words (T47D [2]; 10 μM): increase; sub-diploid DNA content of cells (M1) (T47D [2]; 10 μM, control 2%): 25%
133 | 345 | O=C(Nc1ccc(OCc2ccccc2)cc1[N+](=O)[O-])c1ccc(Cl)nc1 [Example 25, 6-Chloro-N-(4-benzyloxy-2-nitrophenyl)-3-pyridinecarboxamide] | 6.6 | 5.8 | 
